Like-named read-outs stand apart in the source and are kept apart here. Where a SMILES comes first, the peptide text is derived from it. Where no end group is shown, it is not given here. [ ]: non-standard residue; d: D form.
Assays:
erythrocytes = experiment: Hemolysis assay (Example 11); assay type: cell-based; set-up: % Hemolysis Mean: dose or concentration left out as unconfirmed
Description: EDTA-blood was centrifuged at 800 g for 10 min, whereafter plasma and buffy coat were removed. The erythrocytes were washed three times and resuspended in 5% PBS, pH 7.4. The cells were then incubated with end-over-end rotation for 1 h at 37° C. in the presence of peptides ([…]). 2% Triton X-100 (Sigma-Aldrich) served as positive control. The samples were then centrifuged at 800 g for 10 min. The absorbance of hemoglobin release was measured at λ 540 nm and is in the plot expressed as % of TritonX-100 induced hemolysis.

Escherichia coli 37.4 = experiment: Radial diffusion assay (RDA), E. coli 37.4; assay type: cell-based; conditions: zone of inhibition; Table 2, second generation PEPscreen
Description: (§1) Escherichia coli 37.4 isolate was originally obtained from a patient with a chronic venous ulcer, while Staphylococcus aureus isolate BD14312 was from a patient with atopic dermatitis. Staphylococcus aureus ATCC29213 and Candida albicans ATCC90028 were both obtained from the Clinical Bacteriology Department at Lund University hospital.
(§2) Essentially as described earlier (Lehrer et al., J Immunol Methods 137, 167-173, 1991, Andersson et al., Eur J Biochem 271, 1219-1226, 2004) bacteria were grown to mid-logarithmic phase in 10 ml of full-strength (3% w/v) trypticase soy broth (TSB) (Becton-Dickinson, Cockeysville, Md.). The microorganisms were then washed once with 10 mM Tris, pH 7.4.4×10^6 bacterial colony forming units were added to 15 ml of the underlay agarose gel, consisting of 0.03% (w/v) TSB, 1% (w/v) low electroendosmosis type (EEO) agarose (Sigma, St Louis Mo.) and 0.02% (v/v) Tween 20 (Sigma). The underlay was poured into a ø 144 mm petri dish. After agarose solidification, 4 mm-diameter wells were punched and 6 μl of test sample was added to each well. Plates were incubated at 37° C. for 3 hours to allow diffusion of the peptides. The underlay gel was then covered with 15 ml of molten overlay (6% TSB and 1% Low-EEO agarose in dH2O). Antimicrobial activity of a peptide is visualized as a zone of clearing around each well after 18-24 hours of incubation at 37° C.

[1] = tested on: Staphylococcus aureus ATCC29213; experiment: Radial diffusion assay (RDA), S. aureus ATCC29213; assay type: cell-based; conditions: zone of inhibition; Table 2, second generation PEPscreen
Description: as §1, §2

P. aeruginosa 27.1 = experiment: Radial diffusion assay analysis of CNY variants (Example 4); assay type: cell-based, Pseudomonas aeruginosa; conditions: peptides 100 μM
Description: Radial diffusion assays (RDA) were performed essentially as described earlier (Andersson et al., Eur J Biochem, 2004, 271:1219-1226). Briefly, bacteria (P. aeruginosa 27.1) were grown to mid-logarithmic phase in 10 ml of full-strength (3% w/v) trypticase soy broth (TSB) (Becton-Dickinson, Cockeysville, Md.). The microorganisms were washed once with […] Tris, pH 7.4. 4×10^6 bacterial cfu or 1×10^5 fungal cfu was added to 5 ml of the underlay agarose gel, consisting of 0.03% (w/v) TSB, 1% (w/v) low-electroendosmosistype (Low-EEO) agarose (Sigma, St Louise Mo.) and a final concentration of 0.02% (v/v) Tween 20 (Sigma). The underlay was poured into a Ø 85 mm petri dish. After agarose solidified, 4 mm-diameter wells were punched and 6 μl of test sample was added to each well. Plates were incubated at 37° C. for 3 hours to allow diffusion of the peptides. The underlay gel was then covered with 5 ml of molten overlay (6% TSB and 1% Low-EEO agarose in dH2O). Antimicrobial activity of a peptide is visualized as a clear zone around each well after 18-24 hours of incubation at 37° C. Synthetic peptides were tested in concentrations of 100 μM to determine the antibacterial effect (FIG. 8). CNY21; […], CNY20; […], CNY21R-S; […], CNY20R-S; […], CNY21H-L: […], CNY21H-K: […], CNY21H-P: […].

[2] = Pore formation / carboxyfluorescein leakage of liposomes; conditions: 10 mM Tris, pH 7.4
Description: Peptides were tested for binding to lipid bilayers, resulting pore formation and peptide secondary structure in the lipid membranes. Lipid membranes investigated included both zwitterionic ones (containing phosphatidylcholine) and anionic ones (containing mixtures of phosphatidylcholine and phosphatidic acid). Lipid membranes were deposited at silica, and the binding of the peptides from 10 mM Tris, pH 7.4, was directly monitored by ellipsometry. […] Pore formation in these liposomes were determined by including carboxyfluorescein in the liposomes and following the fluorescence intensity increase on addition of peptides to the liposomes. Furthermore, the secondary structure of the peptides in the liposome lipid membranes was probed by circular dichroism.

| Molecule | % Hemolysis Mean (erythrocytes; 1 h) [%] | further results |
| --- | --- | --- |
| CNYIEELLRQRARALHKGLA [Peptide 166] | 2.117 |  |
| CNYIWELRRQLARALHKGLA [Peptide 177] | 3.175 |  |
| CNYITELLRQLARARHKGLA [Peptide 156] | 3.321 |  |
| CC[C@@H](C)[C@@H](NC(=O)[C@@H](Cc1ccc(O)cc1)NC(=O)[C@@H](CC(N)=O)NC(=O)[C@H](N)CS)C(=O)N[C@@H](C(=O)N[C@H](CCC(=O)O)C(=O)N[C@H](CC(C)C)C(=O)N[C@H](CC(C)C)C(=O)N[C@H](CCCNC(=N)N)C(=O)N[C@H](CCC(N)=O)C(=O)N[C@H](CC(C)C)C(=O)N[C@H](C)C(=O)N[C@H](CCCNC(=N)N)C(=O)N[C@H](C)C(=O)N[C@H](CO)C(=O)N[C@H](CCCCN)C(=O)N[C@H](CCCCN)C(=O)NCC(=O)N[C@H](CC(C)C)C(=O)N[C@H](C)C(=O)O)[C@H](C)O [Peptide 183] (H-[dC][dN][dY][dI][dT][dE][dL][dL][dR][dQ][dL][dA][dR][dA][dS][dK][dK]G[dL][dA]-OH; N-terminus and C-terminus assumed) | 5.128 |  |
| CNYIEELWRQLARALHKGLA [Peptide 176] | 2.771 |  |
| Ac-CNYITELRRQHARASHLGLA-NH2 [Peptide 179] | 2.495 | RDA (mm) E. coli 37.4 Mean (Escherichia coli 37.4): 2.677 mm; RDA (mm) S. aureus ATCC29213 Mean [1]: 4.03 mm |
| CNYIKELLRQKLRASHLGLA [Peptide 171] | 2.383 |  |
| CNYITELLRQLARAKKKGLA [Peptide 160] | 2.512 |  |
| CNYIEELRRQWARALHKGLA [Peptide 175] | 1.824 |  |
| CNYIEELLRQLARARKKGLA [Peptide 159] | 1.841 |  |
| Ac-CNYITELLRQLARASKKGLA-NH2 [Peptide 180] | 5.447 | RDA (mm) E. coli 37.4 Mean (Escherichia coli 37.4): 5.933 mm; RDA (mm) S. aureus ATCC29213 Mean [1]: 0 mm |
| CNYITELRRQLARALHKGLA [Peptide 140] | 5.145 |  |
| CC[C@@H](C)[C@@H](NC(=O)[C@@H](Cc1ccc(O)cc1)NC(=O)[C@@H](CC(N)=O)NC(=O)[C@H](N)CS)C(=O)N[C@H](CCC(=O)O)C(=O)N[C@H](CCC(=O)O)C(=O)N[C@H](CC(C)C)C(=O)N[C@H](CCCNC(=N)N)C(=O)N[C@H](CCCNC(=N)N)C(=O)N[C@H](CCC(N)=O)C(=O)N[C@H](CC(C)C)C(=O)N[C@H](C)C(=O)N[C@H](CCCNC(=N)N)C(=O)N[C@H](C)C(=O)N[C@H](CC(C)C)C(=O)N[C@H](Cc1c[nH]cn1)C(=O)N[C@H](CCCCN)C(=O)NCC(=O)N[C@H](CC(C)C)C(=O)N[C@H](C)C(=O)O [Peptide 184] (H-[dC][dN][dY][dI][dE][dE][dL][dR][dR][dQ][dL][dA][dR][dA][dL][dH][dK]G[dL][dA]-OH; N-terminus and C-terminus assumed) | 3.235 |  |
| CNYIEELRRQLARALHKGLA [Peptide 47] | 2.323 | hemolytic activity (erythrocytes): low hemolytic activity |
| CNYITELRRQPARASPLGLAR [CNY21H-P] |  | antibacterial effect in RDA (P. aeruginosa 27.1): no antimicrobial effects; pore formation and leakage of liposomes, order of efficiency [2]: CNY21H-L≈CNY21H-K>CNY21>CNY21H-P≧CNY21 R-S |
| CNYIEELLRQKARALKKGLA [Peptide 164] | 2.340 |  |
| CNYITELKRQLARALHKGLA [Peptide 143] | 3.450 |  |
| CNYITELLRQRARALKKGLA [Peptide 167] | 2.642 |  |
| CNYIEELKRQLARALHKGLA [Peptide 145] | 2.495 |  |
| CNYITELRRQLARALKKGLA [Peptide 141] | 17.716 |  |
| CNYIEELRRQLARALHKWLA [Peptide 173] | 8.148 |  |
| CNYITELLRQLARANKKGLA [Peptide 154] | 2.564 |  |
| CNYIEELLRQLARATHKGLA [Peptide 151] | 1.626 |  |
| CNYIEELLRQLAPASHKGLA [Peptide 148] |  | RDA (mm) E. coli 37.4 Mean (Escherichia coli 37.4): 2.900 mm; RDA (mm) S. aureus ATCC29213 Mean [1]: 0.99 mm; % Hemolysis Mean (erythrocytes): 1.454% |
| CNYITELRRQKARASKLGLAR [CNY21H-K] |  | antibacterial effect in RDA (P. aeruginosa 27.1): larger anti-bacterial effect; pore formation and leakage of liposomes, order of efficiency [2]: CNY21H-L≈CNY21H-K>CNY21>CNY21H-P≧CNY21 R-S |

| Molecule | % Hemolysis Mean (erythrocytes; 1 h) [%] | further results |
| --- | --- | --- |
| CNYITELRRQLARASLLGLAR [CNY21H-L] |  | antibacterial effect in RDA (P. aeruginosa 27.1): larger anti-bacterial effect; pore formation and leakage of liposomes, order of efficiency [2]: CNY21H-L≈CNY21H-K>CNY21>CNY21H-P≧CNY21 R-S |
| CNYITELLRQLARASHKGLA [Peptide 147] | 2.555 |  |
| CNYITELLRQKARALKKGLA [Peptide 163] | 2.478 |  |
| CNYIEELLRQKARALHKGLA [Peptide 162] | 2.056 |  |
| CNYITELLRQLARATKKGLA [Peptide 152] | 3.984 |  |
| CNYITELRRQKLRLLHKGLA [Peptide 170] | 2.211 |  |
| CNYITELLRQKARALHKGLA [Peptide 161] | 1.902 |  |
| CC[C@@H](C)[C@@H](NC(=O)[C@@H](Cc1ccc(O)cc1)NC(=O)[C@@H](CC(N)=O)NC(=O)[C@H](N)CS)C(=O)N[C@@H](C(=O)N[C@H](CCC(=O)O)C(=O)N[C@H](CC(C)C)C(=O)N[C@H](CCCNC(=N)N)C(=O)N[C@H](CCCNC(=N)N)C(=O)N[C@H](CCC(N)=O)C(=O)N[C@H](Cc1c[nH]cn1)C(=O)N[C@H](C)C(=O)N[C@H](CCCNC(=N)N)C(=O)N[C@H](C)C(=O)N[C@H](CO)C(=O)N[C@H](Cc1c[nH]cn1)C(=O)N[C@H](CC(C)C)C(=O)NCC(=O)N[C@H](CC(C)C)C(=O)N[C@H](C)C(=O)O)[C@H](C)O [Peptide 182] (H-[dC][dN][dY][dI][dT][dE][dL][dR][dR][dQ][dH][dA][dR][dA][dS][dH][dL]G[dL][dA]-OH; N-terminus and C-terminus assumed) | 2.659 |  |
| CNYITELLRQRARALHKGLA [Peptide 165] | 2.659 |  |
| CNYITELLRQLARATHKGLA [Peptide 150] | 3.777 |  |
| CNYITELRRQKLRLLKKGLA [Peptide 169] | 2.512 |  |
| CNYIEELRRQLARAWHKGLA [Peptide 174] | 2.056 |  |
| CNYITELLRQLARAQKKGLA [Peptide 155] | 5.817 |  |
| CNYITELLRQLARASKKGLA [Peptide 39] |  | hemolytic activity (erythrocytes): low hemolytic activity |
| CNYITELKRQLARALKKGLA [Peptide 144] | 3.597 |  |
| Ac-CNYIEELRRQLARALHKGLA-NH2 [Peptide 181] | 4.861 | RDA (mm) E. coli 37.4 Mean (Escherichia coli 37.4): 4.330 mm; RDA (mm) S. aureus ATCC29213 Mean [1]: 4.24 mm |
| CNYIEELRRQLARALKKGLA [Peptide 142] | 3.734 |  |
| CKYITLLRRQLLRALKRGLR [Peptide 73] |  | hemolytic activity (erythrocytes): low hemolytic activity |
| CNYIEELLRQRARALKKGLA [Peptide 168] | 2.573 |  |
| CNYITELLRQLARARKKGLA [Peptide 158] | 3.829 |  |
| CNYIEELKRQLARALKKGLA [Peptide 146] | 2.521 |  |
| CNYIEELLRQLARATKKGLA [Peptide 153] | 1.755 |  |
| CNYIEELLRQLARARHKGLA [Peptide 157] | 1.282 |  |
| CNYIEELLRQLARASKKGLA [Peptide 149] | 1.506 |  |
